The record followed here is ChEMBL document CHEMBL4346683 (Eur J Med Chem, 2019).

The structures appear in SMILES notation. ≈ marks a conversion by molar mass, not a printed value.

This assay relates to Mycobacterium tuberculosis. Put plainly: Antibacterial activity against multidrug resistant Mycobacterium tuberculosis. Type of assay: functional.

As a reminder, the MIC is the least concentration at which growth counts as inhibited. `CCCCCCCCCCS(=O)(=O)CC(N)=O` registered an MIC of 0.75 to 1.5 µg/mL (≈ 2.85 to 5.69 µM).
